# “And” between values parts separate entries of the source, which are not always exact repeats. Equal values may be shown once. Where a name gives a salt, the structure may show the parent alone.
# Target: T1, recombinant human beta tryptase (Homo sapiens, UniProt P20231)
# T1 construct: made in house; host or cells: yeast cells
# Experiment: beta-Tryptase inhibition, chromogenic enzyme assay (substrate S2366, read at 405 nm)
# Format: biochemical
# Settings: Ki calculated from IC50: Ki=IC50/(1+[Substrate]/Km); 0.5 mM substrate, room temperature; read-out: Tryptase Ki
# Outline: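 Recombinant human beta tryptase (yeast-expressed; native lung enzyme also used), 50 ng/mL final, with 0.5 mM (2×Km) chromogenic substrate S2366; 30 min in the dark, room temperature, read at 405 nm. Compounds at 0.01-10 μM in duplicate for IC50; Ki=IC50/(1+[S]/Km).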
# T1 sequence (P20231 31-275): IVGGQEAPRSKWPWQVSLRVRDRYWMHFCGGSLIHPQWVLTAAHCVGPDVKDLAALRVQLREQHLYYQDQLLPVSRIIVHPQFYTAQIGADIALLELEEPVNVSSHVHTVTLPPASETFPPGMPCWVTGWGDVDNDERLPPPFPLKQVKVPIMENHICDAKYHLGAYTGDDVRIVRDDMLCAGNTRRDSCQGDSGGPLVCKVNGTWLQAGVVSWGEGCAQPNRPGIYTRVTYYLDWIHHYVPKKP
row,SMILES,Ki [nM]
1,"COCCn1cc(C(=O)N2CCC(c3cc(CN)ccc3F)CC2)c2c(-c3cccnc3)cccc21 [Example 73, [4-(5-Aminomethyl-2-fluoro-phenyl)-piperidin-1-yl]-[1-(2-methoxy-ethyl)-4-pyridin-3-yl-1H-indol-3-yl]-methanone dihydrochloride]",7
2,"NCc1ccc(F)c(C2CCN(C(=O)c3cn(CCN4CCCCC4)c4ccccc34)CC2)c1 [Example 41, [4-(5-Aminomethyl-2-fluoro-phenyl)-piperidin-1-yl]-[1-(2-piperidin-1-yl-ethyl)-1H-indol-3-yl]-methanone dihydrochloride]",62
3,"COCCn1cc(C(=O)N2CCC(c3cc(CN)ccc3F)CC2)c2c(-c3cncnc3)cccc21 [Example 61, [4-(5-Aminomethyl-2-fluoro-phenyl)-piperidin-1-yl]-[1-(2-methoxy-ethyl)-4-pyrimidin-5-yl-1H-indol-3-yl]-methanone dihydrochloride]",17
4,"NCc1ccc(F)c(C2CCN(C(=O)c3cn(CCOC(F)(F)F)c4cccc(-c5ccncc5)c34)CC2)c1 [Example 78, [4-(5-Aminomethyl-2-fluoro-phenyl)-piperidin-1-yl]-[4-pyridin-4-yl-1-(2-trifluoromethoxy-ethyl)-1H-indol-3-yl]-methanone dihydrochloride]",117
5,"Cc1cccc2c(C(=O)N3CCC(c4cc(CN)ccc4F)CC3)cn(CCN3CCCC3)c12 [Example 13, [4-(5-Aminomethyl-2-fluoro-phenyl)-piperidin-1-yl]-[7-methyl-1-(2-pyrrolidin-1-yl-ethyl)-1H-indol-3-yl]-methanone dihydrochloride]",75

# Same assay, conditions: Tryptase Ki (nM), Ki calculated from IC50: Ki=IC50/(1+[Substrate]/Km); 0.5 mM substrate, room temperature
row,SMILES,Ki
1,"COCCn1cc(C(=O)N2CCC(c3cc(CN)ccc3F)CC2)c2c(C(=O)NC3CC3)cccc21 [Example 123, 3-[4-(5-Aminomethyl-2-fluoro-phenyl)-piperidine-1-carbonyl]-1-(2-methoxy-ethyl)-1H-indole-4-carboxylic acid cyclopropylamide hydrochloride]",50 nM
2,"COCCn1cc(C(=O)N2CCC(c3cc(CN)ccc3F)CC2)c2c(-c3ccc(F)cc3)cccc21 [Example 71, [4-(5-Aminomethyl-2-fluoro-phenyl)-piperidin-1-yl]-[4-(4-fluoro-phenyl)-1-(2-methoxy-ethyl)-1H-indol-3-yl]-methanone hydrochloride]",49 nM
3,"Cc1cccc2c(C(=O)N3CCC(c4cc(CN)ccc4F)CC3)cn(CCCN3CCOCC3)c12 [Example 7, [4-(5-Aminomethyl-2-fluoro-phenyl)-piperidin-1-yl]-[7-methyl-1-(3-morpholin-4-yl-propyl)-1H-indol-3-yl]-methanone hydrochloride]",139 nM
4,"COCCn1cc(C(=O)N2CCC(c3cc(CN)ccc3F)CC2)c2c(NC(=O)c3cc4cccc(C)c4[nH]3)cccc21 [Example 121, 7-Methyl-1H-indole-2-carboxylic acid [3-[4-(5-aminomethyl-2-fluoro-phenyl)-piperidine-1-carbonyl]-1-(2-methoxy-ethyl)-1H-indol-4-yl]-amide dihydrochloride]",99 nM
5,"COCCn1cc(C(=O)N2CCC(c3cc(CN)ccc3F)CC2)c2c(C3CC3)cccc21 [Example 52, [4-(5-Aminomethyl-2-fluoro-phenyl)-piperidin-1-yl]-[4-cyclopropyl-1-(2-methoxy-ethyl)-1H-indol-3-yl]-methanone hydrochloride]",49 nM
6,"COCCn1cc(C(=O)N2CCC(c3cc(CN)ccc3F)CC2)c2c(-c3ccc(OC(F)(F)F)cc3)cccc21 [Example 69, [4-(5-Aminomethyl-2-fluoro-phenyl)-piperidin-1-yl]-[1-(2-methoxy-ethyl)-4-(4-trifluoromethoxy-phenyl)-1H-indol-3-yl]-methanone hydrochloride]",400 nM
7,"Cc1cccc2c(C(=O)N3CCC(c4cc(CN)ccc4F)CC3)cn(CCCF)c12 [Example 16, [4-(5-Aminomethyl-2-fluoro-phenyl)-piperidin-1-yl]-[1-(3-fluoro-propyl)-7-methyl-1H-indol-3-yl]-methanone hydrochloride]",97 nM
8,"CCCn1cc(-c2cccc3c2c(C(=O)N2CCC(c4cc(CN)ccc4F)CC2)cn3CCOC)cn1 [Example 67, [4-(5-Aminomethyl-2-fluoro-phenyl)-piperidin-1-yl]-[1-(2-methoxy-ethyl)-4-(1-propyl-1H-pyrazol-4-yl)-1H-indol-3-yl]-methanone hydrochloride]",12 nM
9,"CCOc1cccc2c1c(C(=O)N1CCC(c3cc(CN)ccc3F)CC1)cn2CCOC [Example 57, [4-(5-Aminomethyl-2-fluoro-phenyl)-piperidin-1-yl]-[4-ethoxy-1-(2-methoxy-ethyl)-1H-indol-3-yl]-methanone hydrochloride]",54 nM
10,"NCc1ccc(F)c(C2CCN(C(=O)c3cn(CCc4ccncc4)c4ccccc34)CC2)c1 [Example 35, [4-(5-Aminomethyl-2-fluoro-phenyl)-piperidin-1-yl]-[1-(2-pyridin-4-yl-ethyl)-1H-indol-3-yl]-methanone dihydrochloride]",8.6 nM
11,"COCCn1cc(C(=O)N2CCC(c3cc(CN)ccc3F)CC2)c2cccc(F)c21 [Example 39, [4-(5-Aminomethyl-2-fluoro-phenyl)-piperidin-1-yl]-[7-fluoro-1-(2-methoxy-ethyl)-1H-indol-3-yl]-methanone hydrochloride]",10 nM
12,"Cc1cccc2c(C(=O)N3CCC(c4cc(CN)ccc4F)CC3)cn(CCCO)c12 [Example 17, hydrochloride]",37 nM
13,"COCCn1cc(C(=O)N2CCC(c3cc(CN)ccc3F)CC2)c2c(CCC(C)(C)O)cccc21 [Example 55, [4-(5-Aminomethyl-2-fluoro-phenyl)-piperidin-1-yl]-[4-(3-hydroxy-3-methyl-butyl)-1-(2-methoxy-ethyl)-1H-indol-3-yl]-methanone hydrochloride]",72 nM
14,"COCCn1cc(C(=O)N2CCC(c3cc(CN)ccc3F)CC2)c2c(NC(=O)N3CCOCC3)cccc21 [Example 99, Morpholine-4-carboxylic acid [3-[4-(5-aminomethyl-2-fluoro-phenyl)-piperidine-1-carbonyl]-1-(2-methoxy-ethyl)-1H-indol-4-yl]-amide hydrochloride]",25 nM
15,"Cc1cccc2c(C(=O)N3CCC(c4cc(CN)ccc4F)CC3)cn(CCc3ccccc3)c12 [Example 5, [4-(5-Aminomethyl-2-fluoro-phenyl)-piperidin-1-yl]-(7-methyl-1-phenethyl-1H-indol-3-yl)-methanone hydrochloride]",96 nM and 56 nM
16,"COCCn1cc(C(=O)N2CCC(c3cc(CN)ccc3F)CC2)c2c(NC(=O)C3CCCN(C)C3)cccc21 (stereo not shown) [Example 122, 1-Methyl-piperidine-3-carboxylic acid [3-[4-(5-aminomethyl-2-fluoro-phenyl)-piperidine-1-carbonyl]-1-(2-methoxy-ethyl)-1H-indol-4-yl]-amide hydrochloride]",44 nM
17,"Cc1cccc2c(C(=O)N3CCC(c4cc(CN)ccc4F)CC3)cn(CCO)c12 [Example 20, [4-(5-Aminomethyl-2-fluoro-phenyl)-piperidin-1-yl]-[1-(2-hydroxy-ethyl)-7-methyl-1H-indol-3-yl]-methanone hydrochloride]",19 nM
18,"COCCn1cc(C(=O)N2CCC(c3ccc(Cl)c(CN)c3)CC2)c2cccc(C)c21 [Example 118, [4-(3-Aminomethyl-4-chloro-phenyl)-piperidin-1-yl]-[1-(2-methoxy-ethyl)-7-methyl-1H-indol-3-yl]-methanone hydrochloride]",832 nM
19,"COCCn1cc(C(=O)N2CCC(c3cc(CN)ccc3F)CC2)c2c(OC(C)C)cccc21 [Example 68, [4-(5-Aminomethyl-2-fluoro-phenyl)-piperidin-1-yl]-[4-isopropoxy-1-(2-methoxy-ethyl)-1H-indol-3-yl]-methanone hydrochloride]",35 nM
20,"CNC(=O)COc1ccc(CN)cc1C1CCN(C(=O)c2cn(CCOC)c3c(C)cccc23)CC1 [Example 26, 2-(4-Aminomethyl-2-{1-[1-(2-methoxy-ethyl)-7-methyl-1H-indole-3-carbonyl]-piperidin-4-yl}-phenoxy)-N-methyl-acetamide hydrochloride]",306 nM
21,"COCCn1cc(C(=O)N2CCC(c3cc(CN)ccc3OCC(=O)OC)CC2)c2cccc(C)c21 [Example 23, (4-Aminomethyl-2-{1-[1-(2-methoxy-ethyl)-7-methyl-1H-indole-3-carbonyl]-piperidin-4-yl}-phenoxy)-acetic acid methyl ester hydrochloride]",42 nM
22,"COCCn1cc(C(=O)N2CCC(c3cc(CN)ccc3F)CC2)c2c(NC(=O)C3CC4CCC3C4)cccc21 (stereo not shown) [Example 98, Bicyclo[2.2.1]heptane-2-carboxylic acid [3-[4-(5-aminomethyl-2-fluoro-phenyl)-piperidine-1-carbonyl]-1-(2-methoxy-ethyl)-1H-indol-4-yl]-amide hydrochloride]",147 nM
23,"CN1CCCCC1CCn1cc(C(=O)N2CCC(c3cc(CN)ccc3F)CC2)c2ccccc21 (stereo not shown) [Example 30, [4-(5-Aminomethyl-2-fluoro-phenyl)-piperidin-1-yl]-{1-[2-(1-methyl-piperidin-2-yl)-ethyl]-1H-indol-3-yl}-methanone dihydrochloride]",50 nM
24,"COCCn1cc(C(=O)N2CCC(c3cc(CN)ccc3F)CC2)c2c(C(=O)N3CCCC3)cccc21 [Example 108, [4-(5-Aminomethyl-2-fluoro-phenyl)-piperidin-1-yl]-[1-(2-methoxy-ethyl)-4-(pyrrolidine-1-carbonyl)-1H-indol-3-yl]-methanone hydrochloride]",15 nM
25,"NCc1ccc(F)c(C2CCN(C(=O)c3cn(CCO)c4c(OC(F)(F)F)cccc34)CC2)c1 [Example 22, [4-(5-Aminomethyl-2-fluoro-phenyl)-piperidin-1-yl]-[1-(2-hydroxy-ethyl)-7-trifluoromethoxy-1H-indol-3-yl]-methanone hydrochloride]",390 nM

# Same assay, conditions: Tryptase Ki (nM), additional value in parentheses tagged "8923" (code not explained)
row,SMILES,Ki [nM]
1,"Cc1cccc2c(C(=O)N3CCC(c4cc(CN)ccc4F)CC3)cn(CCc3ccccc3)c12 [Example 5, [4-(5-Aminomethyl-2-fluoro-phenyl)-piperidin-1-yl]-(7-methyl-1-phenethyl-1H-indol-3-yl)-methanone hydrochloride]",11

# From patent US20120245161A1 (SANOFI, priority 2009, published 2012)
